Source: US20090270435A1 (priority 2006, published 2009)
Counter-ions that a name gives are not always drawn.

Assays:
[1] = biological target: T1, ACC2 from rat skeletal muscle (Rattus norvegicus, UniProt Q1HEC0); assay: Direct inhibition of ACC2 activity (14C-bicarbonate incorporation); assay type: biochemical
T1 construct: The livers (for ACC1 preparation) or skeletal muscle tissue (for ACC2 preparation) are removed; from tissue; host or cells: skeletal muscle of male CD rats (fasted, then fed a high sucrose diet)
T1 sequence (Q1HEC0 17-2455): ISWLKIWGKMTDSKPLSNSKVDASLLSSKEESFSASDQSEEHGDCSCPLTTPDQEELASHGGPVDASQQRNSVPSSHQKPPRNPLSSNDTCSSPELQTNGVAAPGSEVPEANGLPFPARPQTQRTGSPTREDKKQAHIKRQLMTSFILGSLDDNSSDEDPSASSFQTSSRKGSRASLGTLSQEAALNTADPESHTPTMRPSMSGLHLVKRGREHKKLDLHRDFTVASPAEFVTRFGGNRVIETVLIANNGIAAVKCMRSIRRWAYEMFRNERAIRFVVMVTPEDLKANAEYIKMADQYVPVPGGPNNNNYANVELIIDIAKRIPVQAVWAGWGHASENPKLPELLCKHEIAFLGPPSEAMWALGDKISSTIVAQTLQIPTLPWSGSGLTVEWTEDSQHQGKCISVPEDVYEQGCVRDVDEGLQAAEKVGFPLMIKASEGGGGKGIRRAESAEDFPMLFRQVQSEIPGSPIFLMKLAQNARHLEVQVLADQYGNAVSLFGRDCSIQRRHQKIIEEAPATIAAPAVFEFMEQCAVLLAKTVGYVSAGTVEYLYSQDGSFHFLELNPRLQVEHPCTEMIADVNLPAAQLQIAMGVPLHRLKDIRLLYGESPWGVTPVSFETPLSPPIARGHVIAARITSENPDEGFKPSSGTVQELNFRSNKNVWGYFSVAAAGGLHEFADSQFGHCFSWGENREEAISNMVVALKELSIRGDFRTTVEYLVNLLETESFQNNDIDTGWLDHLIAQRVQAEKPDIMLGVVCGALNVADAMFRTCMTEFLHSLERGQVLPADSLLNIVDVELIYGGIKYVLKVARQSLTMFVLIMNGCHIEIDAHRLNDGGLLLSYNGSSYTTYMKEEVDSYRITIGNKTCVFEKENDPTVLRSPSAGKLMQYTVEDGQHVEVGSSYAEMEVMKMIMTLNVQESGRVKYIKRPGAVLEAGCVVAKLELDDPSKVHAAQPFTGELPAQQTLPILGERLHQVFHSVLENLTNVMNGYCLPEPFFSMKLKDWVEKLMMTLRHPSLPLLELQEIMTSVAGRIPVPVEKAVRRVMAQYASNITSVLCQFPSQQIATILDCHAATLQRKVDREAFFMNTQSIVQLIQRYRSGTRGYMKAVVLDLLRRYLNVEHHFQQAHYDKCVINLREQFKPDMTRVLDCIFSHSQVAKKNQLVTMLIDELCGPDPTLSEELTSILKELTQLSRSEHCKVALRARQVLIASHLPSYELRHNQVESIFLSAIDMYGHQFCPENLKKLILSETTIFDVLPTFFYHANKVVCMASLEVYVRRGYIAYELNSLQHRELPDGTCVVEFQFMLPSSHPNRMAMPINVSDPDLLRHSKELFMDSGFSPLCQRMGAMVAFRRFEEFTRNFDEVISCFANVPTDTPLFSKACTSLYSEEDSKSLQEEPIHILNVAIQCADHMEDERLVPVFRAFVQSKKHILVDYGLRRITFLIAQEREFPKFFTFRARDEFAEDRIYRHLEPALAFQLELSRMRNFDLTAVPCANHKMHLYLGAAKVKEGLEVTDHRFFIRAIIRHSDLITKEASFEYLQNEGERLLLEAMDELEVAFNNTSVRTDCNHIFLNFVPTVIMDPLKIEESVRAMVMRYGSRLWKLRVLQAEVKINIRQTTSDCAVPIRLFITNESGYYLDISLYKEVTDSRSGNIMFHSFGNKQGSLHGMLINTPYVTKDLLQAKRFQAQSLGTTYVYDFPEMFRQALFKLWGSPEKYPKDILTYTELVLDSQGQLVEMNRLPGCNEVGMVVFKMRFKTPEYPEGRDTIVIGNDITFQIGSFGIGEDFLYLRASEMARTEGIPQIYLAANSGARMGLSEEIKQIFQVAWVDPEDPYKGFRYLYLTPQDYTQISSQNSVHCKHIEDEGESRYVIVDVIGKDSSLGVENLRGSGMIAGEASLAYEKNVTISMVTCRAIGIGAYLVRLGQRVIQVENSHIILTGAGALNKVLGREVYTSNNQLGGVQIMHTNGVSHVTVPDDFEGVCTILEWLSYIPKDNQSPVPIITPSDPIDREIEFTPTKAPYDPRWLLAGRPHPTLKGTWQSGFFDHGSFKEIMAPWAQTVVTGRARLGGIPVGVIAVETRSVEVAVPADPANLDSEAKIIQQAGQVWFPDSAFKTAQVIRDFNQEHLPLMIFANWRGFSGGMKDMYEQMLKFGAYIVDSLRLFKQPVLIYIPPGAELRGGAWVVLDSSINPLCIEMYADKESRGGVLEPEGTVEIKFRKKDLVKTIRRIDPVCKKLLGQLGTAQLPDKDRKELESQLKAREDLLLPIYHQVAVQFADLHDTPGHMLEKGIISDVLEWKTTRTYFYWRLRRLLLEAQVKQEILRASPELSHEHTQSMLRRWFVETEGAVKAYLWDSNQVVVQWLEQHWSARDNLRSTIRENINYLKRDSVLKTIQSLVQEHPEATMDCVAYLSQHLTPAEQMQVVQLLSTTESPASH
Procedure: For example direct inhibition of ACC1 and ACC2 activity, for compounds of Formula (1) were determined using preparations of ACC1 from rat liver and ACC2 from rat skeletal muscle.
[1] Preparation of ACC1 and ACC2. ACC1 was obtained from rat liver and ACC2 was obtained from rat skeletal muscle based upon standard procedures such as those described by Thampy and Wakil (J. Biol. Chem. 260: 6318-6323; 1985) using the following method.
Male CD rats weighing 150-200 g are fasted for 2 days and then fed a high sucrose diet (AIN-76A rodent diet; Cat # D10001, Research Diets Inc., New Brunswick, N.J.), for 3 days at which time they are sacrificed by CO2 asphyxiation. The livers (for ACC1 preparation) or skeletal muscle tissue (for ACC2 preparation) are removed, rinsed in ice-cold phosphate-buffered saline (PBS), and homogenized in 5 volumes of homogenization buffer (50 mM potassium phosphate, pH 7.5, 10 mM EDTA, 10 mM 2-mercaptoethanol, 2 mM benzamidine, 0.2 mM phenylmethylsulfonylfluoride (PMSF), 5 mg/L each leupeptin, aprotinin, and antitrypsin) in a Waring® blender for 1 minute at 4° C. All subsequent operations are carried out at 4° C. The homogenate is made 3% with respect to polyethylene glycol (PEG) by the addition of 50% PEG solution and centrifuged at 20,000×g for 15 minutes. The resulting supernatant is adjusted to 5% PEG with the addition of 50% PEG solution and stirred for 5 minutes. The pellet (contains ACC activity) is collected by centrifugation at 20,000×g for 20 minutes, rinsed with Ice-cold doubly distilled water to remove excess PEG and re-suspended in one-fourth the original homogenate volume with homogenization buffer. Ammonium sulfate (200 g/liter) is slowly added with stirring. After 45 minutes the enzyme is collected by centrifugation for 30 minutes at 20,000×g, re-suspended in 10 ml of 50 mM HEPES, pH7.5, 0.1 mM DTT, 1.0 mM EDTA, and 10% glycerol and desalted on a Sephadex™ G-25 column (2.5 cm-x 50 cm) (Pharmacia, Piscataway N.J. now GE Healthcare) […] equilibrated with the same buffer. The desalted enzyme preparation is stored in aliquots at −70° C. Immediately prior to use, frozen ACC1 or ACC2 aliquots are thawed, diluted to 500 μg/ml in buffer containing 50 mM HEPES, pH7.5, 1.0 mM MgCl2, 10 mM tripotassium citrate, 2.0 mM dithiothreitol (DTT), and 0.75 mg/ml fatty acid-free bovine serum albumin (BSA) and pre-incubated at 37° C. for 30 minutes.
[2] Measurement of ACC inhibition. The procedures for measuring ACC1 inhibition and ACC2 inhibition are identical except for the source of the isozyme. For measurement of ACC activity and assessment of ACC inhibition, test compounds are dissolved in dimethylsulfoxide (DMSO) and 1 μL aliquots are placed in 0.5 ml polypropylene tubes. Control tubes contain 1 μL of DMSO alone. Tubes are incubated at 37° C. in a constant temperature water bath. […] The reaction is then initiated by the addition of 10 μL of preincubated ACC fraction prepared as described above. After 7 minutes the reaction is terminated by the addition of 50 μL of 6N HCl and a 150 μL aliquot of the reaction mixture is transferred to glass scintillation vials and evaporated to dryness at 90° C. for at least 1 hour. The dried vials are then cooled, 0.5 ml of water and 5.5 ml of Ready Safe liquid scintillation fluid (Beckman Coulter Inc., Fullerton, Calif.) are added, and the radioactivity is determined using a liquid scintillation counter. Tubes that received HCl before ACC served as blanks.
[3] Specificity for ACC1 vs ACC2 inhibition. The specificity of a compound for Inhibiting ACC1 vs ACC2 can be determined by comparing the concentration of test compound required to inhibit 50% of the activity contained in an aliquot of ACC1 as compared with the concentration of the same compound required to inhibit 50% of the activity of an aliquot of ACC2.

ACC1 from rat liver = biological target: T2, ACC1 from rat liver (Rattus norvegicus, UniProt P11497); assay: Direct inhibition of ACC1 activity (14C-bicarbonate incorporation); assay type: biochemical
T2 construct: The livers (for ACC1 preparation) or skeletal muscle tissue (for ACC2 preparation) are removed; from tissue; host or cells: liver of male CD rats (fasted, then fed a high sucrose diet)
In short: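 ACC1 partially purified from livers of fasted/sucrose-refed male rats by PEG and ammonium sulfate fractionation, then preincubated 30 min at 37°C with 10 mM citrate and 1.0 mM MgCl2. Reaction ran 7 min at 37°C, stopped with HCl; acid-stable radioactivity counted by scintillation; HCl-first tubes served as blanks.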

[2] = system: hepatic fatty acid synthesis; assay: Measurement of fatty acid synthesis inhibition in experimental animals ([2-14C]acetate into saponifiable lipids in liver); assay type: in vivo, Sprague Dawley rats; conditions: Rattus norvegicus; for inhibition at 30 mg/kg: po, read-out: Percent Inhibition at 30 mg/kg
Text: The ACC inhibitory activity of compounds of this invention, and the salts of such compounds, can be confirmed in vivo by evaluation of their ability to inhibit hepatic fatty acid production and to stimulate whole body fatty acid oxidation using methods based on standard procedures. For example, since ACC catalyzes the first committed step in the biosynthesis of fatty acids, the in vivo activity of these compounds can be confirmed by measuring the ability of the compounds of this invention, and the salts of such compounds, to prevent the formation of radio labeled fatty acids from radio labeled acetate in the livers of treated mammals.
[1] Measurement of fatty acid synthesis inhibition in experimental animals. Incorporation of [2-^14C]acetate into saponifyable lipids in the livers of mammals (e.g. CDI mice, C57BI/6J-ob/ob mice, Sprague Dawley rats (available from Charles River Boston, Mass. or Jackson Labs Bar Harbor, Me.)) can be measured essentially as previously described for assessment of hepatic sterol synthesis (Harwood et al, Biochem. Pharmacol, 40: 1281-1293, 1990; Harwood et al. Biochem. Pharmacol. 53: 839-864, 1997) with the following modifications to allow for assessment fatty acid synthesis. For example, Sprague Dawley rats are administered a 0.1 ml per 40 g body weight of an oral bolus of vehicle (e.g. water or 0.5% methylcellulose in water)±test compound. One to four hours after compound administration, animals receive an intraperitoneal injection of 0.5 ml of [2-^14C]acetate (64 μCi/ml; 57 mCi/mmol). One hour after radiolabel administration, animals are sacrificed by CO2 asphyxiation and two, 0.75 g liver pieces are removed and saponified at […]. for 120 minutes in 1.5 ml of 2.5 M NaOH. After saponification, 2.5 ml of absolute EtOH are added to each sample and the solutions are mixed and allowed to stand overnight. Petroleum ether, 4.8 ml, is then added to each sample and the mixtures are first shaken vigorously for 2 minutes then centrifuged at 1000×g in a bench-top Sorvall®9 for 5 minutes. The resultant petroleum ether layers, which contain the nonsaponifyable lipids (e.g. cholesterol, post-squalene cholesterol precursors and other non-saponifiable lipids), are removed and discarded. The remaining aqueous layer (containing fatty acid sodium salts) is acidified to pH<2 by addition of 0.6 ml of 12 M HCl and extracted two times with 4.8 ml of petroleum ether. The pooled organic fractions (containing protonated fatty acids) are transferred to liquid scintillation vials, dried under nitrogen, dissolved in 7 ml of Aqua sol liquid scintillation fluid, and assessed for radioactivity using a liquid scintillation counter. Inhibition of fatty acid synthesis by the test compound is expressed as the concentration required to reduce by 50% the dpm [2-^14C]acetate incorporated into saponifiable lipids during the 1 hour interval between radio labeled acetate injection and CO2 asphyxiation.
Some compounds of the present were evaluated for inhibition of fatty acid synthesis as described above. As shown below, these compounds were all observed to inhibit the synthesis of fatty acids in vivo.

Row | Structure (SMILES) | IC50 ([1]; ACC2 from rat skeletal muscle) | IC50 (ACC1 from rat liver; ACC1 from rat liver) | inhibition at 30 mg/kg [2] | further results
1 | Cc1cc(C(=O)N2CCC3(CC2)CC(=O)c2cc(OC(C)C)ccc2O3)cc2cn[nH]c12 [Ex. A3, 6-isopropoxy-1′-[(7-methyl-1H-indazol-5-yl)carbonyl]spiro[chromene-2,4′-piperidin]-4(3H)-one] | 0.0172 µM | 0.0145 µM | – | –
2 | CCOc1ccc2c(c1)C(=O)CC1(CCN(C(=O)c3cc(C)c4[nH]ncc4c3)CC1)O2 [Ex. A4, 6-ethoxy-1′-[(7-methyl-1H-indazol-5-yl)carbonyl]spiro[chromene-2,4′-piperidin]-4(3H)-one] | 0.0299 µM | 0.0195 µM | – | –
3 | COc1ccc2c(c1)C(=O)CC1(CCN(C(=O)c3cc(C)c4[nH]ncc4c3)CC1)O2 [Ex. A7, 6-methoxy-1′-[(7-methyl-1H-indazol-5-yl)carbonyl]spiro[chromene-2,4′-piperidin]-4(3H)-one trifluoroacetic acid salt] | 0.138 µM | 0.0325 µM | – | –
4 | COc1ccc2c(c1F)C(=O)CC1(CCN(C(=O)c3cc(C)c4[nH]ncc4c3)CC1)O2 [Ex. A9, 5-fluoro-6-methoxy-1′-[(7-methyl-1H-indazol-5-yl)carbonyl]spiro[chromene-2,4′-piperidin]-4(3H)-one] | – | 0.0374 µM | 33.5% | –
5 | Cc1cc(C(=O)N2CCC3(CC2)CC(=O)c2cc(OC(F)(F)F)ccc2O3)cc2cn[nH]c12 [Ex. A12, 1′-[(7-methyl-1H-indazol-5-yl)carbonyl]-6-(trifluoromethoxy)spiro[chromene-2,4-piperidin]-4(3H)-one] | – | 0.0419 µM | 38.7% | –
6 | Cc1cc2c(cc1Cl)C(=O)CC1(CCN(C(=O)c3cc(C)c4[nH]ncc4c3)CC1)O2 [Ex. A13, 6-chloro-7-methyl-1′-[(7-methyl-1H-indazol-5-yl)carbonyl]spiro[chromene-2,4′-piperidin]-4(3H)-one] | – | 0.045 µM | 64% | –
7 | COc1ccc2c(c1)C(=O)CC1(CCN(C(=O)c3cc(C)c4[nH]ncc4c3)CC1)O2 [Ex. A16, 6-methoxy-1′-[(7-methyl-1H-indazol-5-yl)carbonyl]spiro[chromene-2,4′-piperidin]-4(3H)-one] | – | 0.0551 µM | 83% | inhibition at 10 mg/kg ([2]; inhibition of fatty acid synthesis in vivo, 10 mg/kg, oral bolus, read-out: Percent Inhibition at 10 mg/kg): 68%
8 | Cc1cc(C(=O)N2CCC3(CC2)CC(=O)c2cc(Cl)c(F)cc2O3)cc2cn[nH]c12 [Ex. A21, 6-chloro-7-fluoro-1′-[(7-methyl-1H-indazol-5-yl)carbonyl]spiro[chromene-2,4′-piperidin]-4(3H)-one] | – | 0.0966 µM | 59.5% | –
9 | CC(C)Oc1ccc2c(c1)C(=O)CC1(CCN(C(=O)c3cc(Cl)c4[nH]ncc4c3)CC1)O2 [Ex. B2, 1′-[(7-chloro-1H-indazol-5-yl)carbonyl]-6-isopropoxyspiro[chromene-2,4′-piperidin]-4(3H)-one] | 0.0311 µM | 0.0161 µM | – | –
10 | CCOc1ccc2c(c1)C(=O)CC1(CCN(C(=O)c3cc(Cl)c4[nH]ncc4c3)CC1)O2 [Ex. B3, 1′-[(7-chloro-1H-indazol-5-yl)carbonyl]-6-ethoxyspiro[chromene-2,4′-piperidin]-4(3H)-one] | 0.0343 µM | 0.0214 µM | – | –
11 | Cc1cc2c(cc1Cl)C(=O)CC1(CCN(C(=O)c3cc(Cl)c4[nH]ncc4c3)CC1)O2 [Ex. B4, 6-chloro-7-methyl-1′-[(7-chloro-1H-indazol-5-yl)carbonyl]spiro[chromene-2,4′-piperidin]-4(3H)-one] | 0.127 µM | 0.0568 µM | – | –
12 | COc1ccc2c(c1)C(=O)CC1(CCN(C(=O)c3cc(Cl)c4[nH]ncc4c3)CC1)O2 [Ex. B5, 1′-[(7-chloro-1H-indazol-5-yl)carbonyl]-6-methoxyspiro[chromene-2,4′-piperidin]-4(3H)-one] | 0.231 µM | 0.081 µM | – | –
13 | Cc1cc2c(cc1Cl)C(=O)CC1(CCN(C(=O)c3cccc(-c4cc[nH]n4)c3)CC1)O2 [Ex. M3, 6-chloro-7-methyl-1′-[3-(1H-pyrazol-3-yl)benzoyl]spiro[chromene-2,4′-piperidin]-4(3H)-one] | – | – | – | IC50 ([1]; Table of Examples M1-M36): 0.434 µM; IC50 (ACC1 from rat liver; Table of Examples M1-M36): 0.105 µM
14 | N#Cc1ccc2c(c1)C(=O)CC1(CCN(C(=O)c3cccc(-c4cc[nH]n4)c3)CC1)O2 [Ex. M33, 4-oxo-1′-[3-(1H-pyrazol-3-yl)benzoyl]3,4-dihydrospiro[chromene-2,4′-piperidine]-6-carbonitrile] | – | – | – | IC50 ([1]; Table of Examples M1-M36): 1.86 µM; IC50 (ACC1 from rat liver; Table of Examples M1-M36): 0.816 µM
15 | CCOc1ccc2c(c1)C(=O)CC1(CCN(C(=O)c3cccc(-c4cc[nH]n4)c3)CC1)O2 [Ex. N2, 6-ethoxy-1′-[3-(1H-pyrazol-3-yl)benzoyl]spiro[chromene-2,4′-piperidin]-4(3H)-one] | 0.0917 µM | 0.0432 µM | – | –
16 | CC(C)Oc1ccc2c(c1)C(=O)CC1(CCN(C(=O)c3cccc(-c4cc[nH]n4)c3)CC1)O2 [Ex. N3, 6-isopropoxy-1′-[3-(1H-pyrazol-3-yl)benzoyl]spiro[chromene-2,4′-piperidin]-4(3H)-one] | 0.0548 µM | 0.0483 µM | – | –
